What all share (assay type): in vivo
In assay [1] the test system is LPS-induced shock in C3H mice. The experiment in a line: Model of protection against septic shock (LPS). The conditions noted are these: 100 μg LPS i.p., 20 mg/kg/day i.p. at time of injection and 24 hours later. As for the experimental part:
As a control group, 4 sham treated (saline injection) C3H mice being injected intraperitoneously with 100 μg lipopolysaccharide (hereinafter LPS) per mouse, all died within 1 to 3 days after injection.

For assay [2], the system named is TNBS-induced colitis in C57 BL/6 male mice. Kind of assay: Trinitrobenzenesulfonate-induced colitis test in mice (Example 210). As for the experimental part:
C57 BL/6 male mice (4-5 weeks) were obtained from M&B (Denmark), bred under standard pathogen-free conditions and maintained in the certified animal facility of the University Hospital Gasthuisberg, Catholic University of Leuven (Leuven, Belgium). Experiments were approved by the local Ethical Committee of Animal Experimentation. Colitis was induced by rectal administration of 1 mg trinitrobenzenesulphonate (hereinafter referred as TNBS) in 50% ethanol with 2 times pre-sensitization. Briefly, mice were sensitized twice 10 days and 5 days before challenge. For sensitization, a 2×2 cm field of the abdominal skin was shaved, and 100 μl of 5 mg TNBS in 50% ethanol solution was applied. On the day of challenge, mice were first lightly anesthetized with metofane, subsequently TNBS was administered per rectum via a round-tip needle equipped with a 1-ml syringe. The tip of the needle was inserted so that the tip was 3.5 to 4 cm proximal to the anal verge and TNBS was injected with a total volume of 100 μl. To ensure distribution of TNBS within the entire colon and cecum, mice were held in a vertical position for 1 minute after the injection.
The compound of example 17 (2-amino-4-[(N-phenoxyacetyl)-piperazin-1-yl]-6-(3,4-dimethoxy-phenyl)pteridine) was given by daily intra-peritoneal injection at the dose of 20 mg/kg (400 μg dissolved in 100 μl PBS with 10% DMSO). Control mice were treated with vehicle only. Body weights of all animals were recorded daily in order to follow the development of inflammatory colitis over a period of 10 days.
Both macroscopic and microscopic histology evaluations were performed as follows. Briefly, mice were sacrificed at day 2 by cervical […], the colon was excised and was immediately examined visually, and damage was scored on a 0-12 scale, as described previously by Shen et al. in Int. Immunopharmacol. (2004), 4:939-951. Colon sections were then fixed in 6% formalin and embedded in paraffin, cut into sections, and then stained with hematoxylin and eosin. Stained sections were examined for evidence of colitis using as criteria the presence of cell infiltration, elongation and/or distortion of crypts, crypt abscesses, reduction in goblet cell number, frank ulceration, and edema formation.
Myeloperoxidase (MPO) activity was measured as described previously by Shen et al. (cited supra). Briefly, two days after intracolonic injection of TNBS, 50 mg colon was removed, homogenised and sonicated on ice. Samples were frozen in liquid nitrogen and subsequently thawed in a water bath at 37° C., each step lasted 3 minutes and the procedure was repeated for two cycles. After centrifugation an aliquot of the supernatant was then allowed to react with a solution of tetra-methyl-benzidine (1.6 mM) and 0.1 mM H2O2. The rate of change in absorbance was measured spectrophotometrically at 460 nm. MPO activity was defined as the quantity of enzyme degrading 1 μmol of peroxide/minute at 37° C. and was expressed in units per gram weight of wet tissue. Sample enzyme activity was measured from a standard curve of known MPO unit activity (assay sensitivity 5×10^−7 units per well).
Serum levels of antibodies generated against TNBS were measured in the mouse sera on the 10th day after disease induction by enzyme-linked immunosorbent assay (ELISA). The ELISA method used herein is as reported in detail by Shen et al (cited supra).
Quantitative Reverse Transcriptase (RT)-PCR for cytokine mRNA was performed as follows: part of the colon removed on day 2 after TNBS application was immediately frozen in liquid nitrogen after dissection and stored at −70° C. until extraction of total RNA using the method of Shen et al (cited supra). A constant amount of 1 μg of total RNA was used for oligo-(dT)-primed cDNA synthesis (Ready-to-go-kit, Pharmacia, Uppsala, Sweden). After 90 minutes at 37° C., the reverse transcriptase was inactivated by incubating the cDNA samples for 5 minutes at 95° C. […]

For assay [3], the system named is TNF-α induced shock in C57BL/6 male mice. Kind of assay: Protection against a lethal dose of TNF-α. The method, then: A model of TNF-α induced shock in C57BL/6 male mice was performed as follows. Five animals from the control group received an intravenous administration of a lethal dose of TNF-α (10 μg) in the tail. Ten animals from the test group received three intraperitoneous injections of the pteridine derivative of example 17 (20 mg/kg/day) respectively 48 hours, 24 hours and immediately before an intravenous injection of TNF-α (10 μg).
Furthermore, all five mice from the control group died within 40 hours, the survival rate (80%) of mice that received the pteridine derivative of example 17 in addition to the TNF-α dose (10 μg) was quite substantial.

Turning to `COc1ccc(-c2cnc3nc(N)nc(N4CCN(C(=O)COc5ccccc5)CC4)c3n2)cc1OC` [Example 17, 2-amino-4-[(N-phenoxyacetyl)-piperazin-1-yl]-6-(3,4-dimethoxy-phenyl)pteridine], the “protection from acute shock related mortality” value in assay [1] is reported as “all mice were protected from acute shock related mortality”. For the same compound, the “days required to recover original body weight” value in assay [2] (daily i.p. 20 mg/kg) is 6 days. Also, the microscopic score in assay [2] (daily i.p. 20 mg/kg, day 2) was found to be 6.0±0.7. In addition, in assay [2] (daily i.p. 20 mg/kg, day 2, 0-12 scale), the average macroscopic score was 6.3±0.7. Also, in assay [2] (daily i.p. 20 mg/kg, two days after TNBS), the “MPO activity in colon” value is 8.9±2.0 U/g. Also, the “reduction in average macroscopic score” value in assay [2] (daily i.p. 20 mg/kg, versus control mice) is 30%. Also, in assay [2] (day 2, differences did not reach statistical significance), the “cytokine mRNA levels for TNF-α, IL-18 and IFN-γ in colon” value is on record as “all reduced”. Further, in assay [2] (serum, after treatment), the “Anti-TNBS antibody (IgG2a) levels” value was 76.6±3.3 OD. For the same compound, in assay [2] (serum, compared to untreated mice), the “Anti-TNBS antibody (IgG1) levels” value was “significantly lower”. The compound also registered a survival rate in assay [3] (TNF-α 10 μg i.v., 20 mg/kg/day i.p. three injections, within 40 hours) of 80%. In addition, the body temperature entry in assay [3] (followed for 40 hours, 20 mg/kg/day i.p. 48 h, 24 h and immediately before TNF-α 10 μg i.v.) is listed as “body temperature of control mice dropped significantly when compared to mice receiving the test compound”.

Values taken from patent US20070032477A1, “Pteridine derivatives useful for making pharmaceutical compositions” (priority 2003, published 2007).
